The source of these data is patent publication US20060111333A1, “Structural, behavioral characterization, and synthesis of attractants for migratory lamprey” (priority 2004, published 2006).

Assay [1] deals with adult lamprey olfactory system. Conditions: with high specificity; Polkinghorne 2001, Li 1995, Li 1997; cited from earlier work.
Assay [2] concerns olfactory epithelium of migratory adult sea lamprey. Kind of assay: electro-olfactogram (EOG) recording of olfactory activity. In kind it is in vivo. Conditions: odorant pulsed over the nose, FIG. 2 insets. An excerpt: Using electro-olfactogram recording (EOG) to screen for olfactory activity. The EOG measures extracellular voltage transients believed to reflect large numbers of olfactory receptor generator potential (Sorensen et al. in: The Physiology of Fishes, 2nd ed., (ed., R. E. Evans), 375-406, (CRC Press, FL, 1998)). To accomplish EOG recording, freshly-captured migratory adult sea lamprey were anesthetized, immobilized, and their olfactory epithelium exposed following established protocols (Li et al., J. Gen. Physiol., 105, 569-589 (1995); and Li et al., Petromyzon marinus, J. Comp Physiol. A., 180, 429-438 (1997)). One electrode was placed on the head and the other positioned to find a region of maximum sensitivity to our standard, 10^−5 M L-arginine. Test odorants were then pulsed over the nose for 3-sec intervals with breaks. All stimuli were tested at least twice. Aliquots of appropriate solvents were diluted and tested as controls.

The test system of another assay is migratory sea lampreys. Briefly: behavioral assay in large 2-choice maze. Type of assay: in vivo, sea lamprey. The following applies: 14 trials of 4 lampreys. As to the method:
Confirming biological activity using a behavioral assay. Migratory sea lampreys were tested at night in large (9×1.8 meters (m)) 2-choice mazes supplied with natural lake and rivers waters (400 L min^−1) designed to simulate the scenario of lamprey encountering a river plume in a lake. Test odors were pumped down one side (in a way shown by dye to effect complete mixing) and appropriate controls (carriers, etc.) down the other. Trials lasted 15 min and commenced when groups of 4 sea lamprey were released from the upstream section of the maze and the time they spent in the stimulus side or its control noted. Experiments typically employed 14 trails and were evaluated by t-test after arc-sign transformation (Vrieze et al., Can. J. Fish. Aquat. Sci., 58, 2374-2385 (2001)).

For the compound `C[C@H](CCC(=O)O)[C@H]1CC[C@H]2[C@@H]3[C@H](O)C[C@H]4C[C@H](O)CC[C@]4(C)[C@H]3C[C@H](O)[C@]12C` [ACA, allocholic acid], in assay [1], the “concentration at which the adult lamprey olfactory system detects the product” value is reported as 10^−11 Molar (M).

With `C[C@H](CCCOS(=O)(=O)[O-])[C@H]1CC[C@H]2[C@@H]3[C@H](O)C[C@H]4C[C@H](O)CC[C@]4(C)[C@H]3C[C@H](O)[C@]12C.[Na+]` [compound 1, petromyzonol sulfate, reference compound], the “EOG threshold (lowest concentration detected by EOG recording)” value (from here on “EOG threshold”) in assay [2] is “below 10^−12 M”. Besides, in assay [1], the “concentration at which the adult lamprey olfactory system detects the product” value was 10^−12 Molar (M). Moreover, the “behavioral activity (attraction) in maze” value in the assay with migratory sea lampreys (at 10^−11 M) was “only weak and somewhat inconsistent behavioral activity”.

As for `CC(C)[C@@H](CC[C@@H](C)[C@H]1CC[C@H]2[C@@H]3[C@H](OS(=O)(=O)[O-])C[C@H]4C[C@@H](NCCCN5CCCC5=O)CC[C@]4(C)[C@H]3CC[C@]12C)OS(=O)(=O)[O-].[Na+].[Na+]` [compound 3, petromyzonamine disulfate], in assay [2], the “EOG threshold” value is reported as 10^−13 M. The “behavioral activity (attraction) in maze” value in the assay on migratory sea lampreys (at 10^−12 M) and with migratory sea lampreys (at 10^−13 M) was “strongly attracted” throughout.

For petromyzosterol disulfate [compound 2], the “EOG threshold” value in assay [2] is on record as 10^−12 M. For the same compound, the “behavioral activity (attraction) in maze” value in the assay on migratory sea lampreys (at 10^−11 M) is listed as “consistently attractive”.
